Results: patent publication US4764590A, “Des-19-leucine, 20-glutamine, 21-threonine-calcitonin” (Rorer Pharmaceutical Corporation, priority 1987, dated 1988)
Where a SMILES comes first, the peptide text is derived from it.

Key:
[1] = tested on: serum calcium concentration; assay: Biological assay of calcitonin analogs in vivo: reduction of serum calcium concentration, 2×2 parallel line assay; settings: rats, subcutaneous injection, blood withdrawn 1 hour later, versus synthetic salmon calcitonin standard
Method: Biological Assay of Calcitonin Analogs in Vivo
The biological potency of des-19-leucine, 20-glutamine, 21-threonine-salmoncalcitonin was determined by comparing the reduction of serum calcium concentration which followed administration by graded doses of des-Leu^19, Gln^20, Thr^21 -SCT and synthetic salmon calcitonin standard. Rats were divided into four groups of seven animals, and each group was assigned at random to a dose of standard or test solution. Low and high doses were chosen from the linear portion of the dose-response curve. For the salmon calcitonin standard, the values were 0.7 and 2.1 ng. peptide/100 g. body weight (BW). This dose approximates 3 and 9 MU/100 g. BW. Peptides were given by subcutaneous injection (0.2 ml/100 g. BW) and blood was withdrawn 1 hour later for serum calcium determination. Sera are processed and analyzed within two hours of collection. […]. Results were analyzed by a 2×2 parallel line assay [Gaddum, J. H., J. Pharm. Pharmacol., 6, 345 (1953)]. The standard salmon calcitonin used was independently determined to contain greater than 4,000 IU/mg. des-Leu^19, Gln^20, Thr^21 -SCT assayed at 7100 IU/mg.

[2] = Monikawa et al., Experientia 32(9), 1104-1106 (1976); cited from earlier work
[3] = tested on: serum calcium concentration; settings: standard used in the rat assay; cited from earlier work

| Compound | hypocalcemic potency [2] | also measured |
| --- | --- | --- |
| CC(C)C[C@H](NC(=O)[C@H](CCCCN)NC(=O)CNC(=O)[C@H](CC(C)C)NC(=O)[C@@H](NC(=O)[C@@H]1CSSC[C@H](N)C(=O)N[C@@H](CO)C(=O)N[C@@H](CC(N)=O)C(=O)N[C@@H](CC(C)C)C(=O)N[C@@H](CO)C(=O)N[C@@H]([C@@H](C)O)C(=O)N1)C(C)C)C(=O)N[C@@H](CO)C(=O)N[C@@H](CCC(N)=O)C(=O)N[C@@H](CCC(=O)O)C(=O)N[C@@H](CC(C)C)C(=O)N[C@@H](Cc1c[nH]cn1)C(=O)N[C@@H](CCCCN)C(=O)N[C@@H](Cc1ccc(O)cc1)C(=O)N1CCC[C@H]1C(=O)N[C@@H](CCCNC(=N)N)C(=O)N[C@H](C(=O)N[C@@H](CC(N)=O)C(=O)N[C@H](C(=O)NCC(=O)N[C@@H](CO)C(=O)NCC(=O)N[C@H](C(=O)N1CCC[C@H]1C(N)=O)[C@@H](C)O)[C@@H](C)O)[C@@H](C)O [des-Leu^19, Gln^20, Thr^21 -SCT, des-19-leucine, 20-glutamine, 21-threonine-salmon calcitonin] (HELM PEPTIDE1{C.S.N.L.S.T.C.V.L.G.K.L.S.Q.E.L.H.K.Y.P.R.T.N.T.G.S.G.T.P.[am]}$PEPTIDE1,PEPTIDE1,1:R3-7:R3$$$V2.0) |  | biological potency (reduction of serum calcium concentration) [1]: 7100 IU/mg |
| (1,7-alpha-L-amino-suberic acid) eel calcitonin | about 3400 IU/mg. |  |
| Salmon calcitonin [standard salmon calcitonin] |  | potency of the standard salmon calcitonin, independently determined [3]: greater than 4,000 IU/mg |
| eel calcitonin [synthetic eel calcitonin] | around 4300 IU/mg. |  |
